Experimental data published in patent publication US10113185B2, “Utilization of phosphoketolase in the production of mevalonate, isoprenoid precursors, and isoprene” (Danisco US Inc., priority 2011, dated 2018).
Like-named read-outs stand apart in the source and are kept apart here.

Experiments:
[1] = test system: Lactobacillus plantarum phosphoketolase; settings: cited from earlier work
[2] = test system: Bifidobacterium breve phosphoketolase; settings: cited from earlier work
[3] = test system: Bifidobacterium lactis phosphoketolase; settings: Meile et al. (2001), cited from earlier work
[4] = test system: Leuconostoc oenos phosphoketolase; settings: Veiga-da-Cunha et al. (1993), cited from earlier work
[5] = test system: Enterococcus gallinarum phosphoketolase (E. gallinarum PKL), encoded by SEQ ID NO:17; experiment: Kinetic analysis of purified E. gallinarum phosphoketolase (ferric hydroxamate assay, AcP formation); format: biochemical
Experimental: The amino acid sequence of Enterococcus gallinarum PKL was obtained from GeneBank and was processed in GeneArt optimization software for optimized expression in E. coli. Two base pairs were added in front of the PKL gene to form a NcoI site and a Sad site was inserted just after the stop codon. The synthesized PKL gene was cloned into GeneArt kanamycin-resistant cloning plasmid. The E. gallinarum PKL gene (SEQ ID NO:17) was then subcloned into a BspHI/SacI-digested pTrcHis2B vector (Life Technologies, Carlsbad, Calif.) to form plasmid pCMP1321.
Cells were grown in LB medium with 50 ug/ml carbenecillin at 37 C prior to induction. […] For purification, E. gallinarum PKL cell pellets were resuspended in 50 mM MES pH 6.0, 50 mM NaCL, 0.5 mM AEBSF, 0.1 mg/ml DNaseI. […] Clarified lysate containing PKL from E. gallinarum was loaded onto a DEAE HiTrap FF column equilibrated in 50 mM MES, 50 mM NaCl, pH 6 and eluted with a gradient to 50 mM MES, 1M NaCl, pH 6. The resulting fractions were analyzed by SDS-PAGE. Fractions containing PKL were pooled and desalted using a G25 desalting column into 50 mM MES, 50 mM NaCL pH 6.0. Further purification was achieved using a MonoQ 10/100 GL column equilibrated in 50 mM MES, 50 mM NaCL, pH 6 with a salt gradient to 1M NaCl. Fractions containing PKL were pooled and analyzed by SDS PAGE, quantitation was achieved using A280 a molar extinction coefficient of 136980 determined by Vector NTI.
Time points were taken at various intervals. […] An AcP standard curve ranging between 12.5 and 0.2 mM was generated for quantitation.

[6] = test system: Bifidobacterium globosum ATCC 25864 phosphoketolase; settings: Grill et al. (1995), cited from earlier work
[7] = test system: Bifidobacterium longum BB536 phosphoketolase; settings: Grill et al. (1995), cited from earlier work
[8] = test system: Lactobacillus paraplantarum C7 phosphoketolase; settings: Jeong et al. (2007), cited from earlier work
[9] = test system: Bifidobacterium dentium ATCC27534 phosphoketolase; settings: Grill et al. (1995), cited from earlier work
[10] = test system: Bifidobacterium animalis ATCC 25527 phosphoketolase; settings: Grill et al. (1995), cited from earlier work
[11] = molecular target: T1, Bifidobacterium longum phosphoketolase (B. longum PKL), SEQ ID NO: 4 (encoded by SEQ ID NO:3) (Bifidobacterium longum, UniProt A0ACD7USP0); settings: 37° C., pH 6, saturating Pi (20 mM), enzyme 0.25 μM, time measured 60
T1 sequence (A0ACD7USP0 1-825): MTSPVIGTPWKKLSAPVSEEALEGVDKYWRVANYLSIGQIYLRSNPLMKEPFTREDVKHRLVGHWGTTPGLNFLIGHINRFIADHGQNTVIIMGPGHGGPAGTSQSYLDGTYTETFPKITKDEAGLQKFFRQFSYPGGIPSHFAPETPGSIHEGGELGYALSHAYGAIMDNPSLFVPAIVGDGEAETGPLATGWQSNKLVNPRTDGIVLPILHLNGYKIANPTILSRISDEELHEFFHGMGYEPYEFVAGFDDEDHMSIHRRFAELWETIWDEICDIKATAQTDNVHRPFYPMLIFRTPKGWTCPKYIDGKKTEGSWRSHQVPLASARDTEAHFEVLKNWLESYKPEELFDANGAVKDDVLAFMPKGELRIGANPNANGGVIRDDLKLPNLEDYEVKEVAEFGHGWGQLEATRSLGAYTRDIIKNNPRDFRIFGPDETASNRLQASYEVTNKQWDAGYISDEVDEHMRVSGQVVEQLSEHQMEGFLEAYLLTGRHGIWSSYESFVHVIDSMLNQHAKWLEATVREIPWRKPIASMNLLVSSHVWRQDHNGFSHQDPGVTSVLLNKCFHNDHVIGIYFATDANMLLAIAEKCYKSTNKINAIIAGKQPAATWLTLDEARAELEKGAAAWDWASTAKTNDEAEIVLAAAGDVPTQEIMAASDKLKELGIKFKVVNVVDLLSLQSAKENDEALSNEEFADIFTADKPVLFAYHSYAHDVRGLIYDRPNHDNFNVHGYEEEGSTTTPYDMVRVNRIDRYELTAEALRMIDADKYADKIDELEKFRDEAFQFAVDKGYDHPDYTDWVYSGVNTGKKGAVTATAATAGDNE

[12] = substrate: O=P(O)(O)OC[C@H]1OC(O)(CO)[C@@H](O)[C@@H]1O; experiment: purified protein, by the assay type; settings: other: 37° C., pH 6, saturating Pi (20 mM), enzyme 0.25 μM, time measured 60
[13] = 37° C., pH 6, saturating Pi (20 mM), enzyme 0.5 μM, time measured 30

Question: Which Km ([1]; for F6P as a substrate, read-out: Km(Pi)) does the source give for O=P(O)(O)O [Pi, inorganic phosphate] here?
Answer: The Km was 2.9 mM.

Question: What about the Km ([1]; for X5P as a substrate, read-out: Km(Pi)) of the same molecule?
Answer: Its Km is 7.5 mM.

Question: What about the Km ([2]; for F6P as a substrate, read-out: KmPi) of the same molecule?
Answer: Its Km is 1.2 mM.

Question: Which “kcat(X5P)” value [3] does the source give for O=C(CO)[C@@H](O)[C@H](O)COP(=O)(O)O [X5P, xylulose 5-phosphate] here?
Answer: Its value is “kcat(X5P) = 42 s^−1”.

Question: And the Km ([3]; read-out: Km(X5P))?
Answer: Its Km is 55 mM.

Question: What about the “kcat(X5P)” value ([1]; Yevenes and Frey (2008)) of the same molecule?
Answer: Its value is “kcat(X5P) = 6.1 s^−1”.

Question: What about the Km ([1]; Yevenes and Frey (2008), read-out: Km(X5P)) of the same molecule?
Answer: The Km was 3.6 mM.

Question: And the “kcat(X5P)” value [4]?
Answer: Its value is “kcat (X5P) = 3.5 s^−1”.

Question: And the Km ([4]; read-out: Km(X5P))?
Answer: Its Km is 1.6 mM.

Question: What about the “kcat(X5P)” value ([2]; Suzuki et al. (2010)) of the same molecule?
Answer: The value was “kcat (X5P) = 44.8 s^−1”.

Question: And the Km [5, 13]?
Answer: The Km was 5.81 mM.

Question: And the Vmax [5, 13]?
Answer: Its Vmax is 2.18 µM/s.

Question: What about the kcat [5, 13] of the same molecule?
Answer: The kcat was 4.4 s⁻¹.

Question: What about the kcat ([5]; saturating Pi) of the same molecule?
Answer: Its kcat is 4.4 s⁻¹.

Question: For O=P(O)(O)OC[C@H]1OC(O)(CO)[C@@H](O)[C@@H]1O (stereo partly drawn) [F6P, fructose 6-phosphate], which “kcat (F6P)” value [6] is on record?
Answer: Its value is “kcat (F6P) = 40 s^−1”.

Question: What about the Km ([6]; read-out: Km(F6P)) of the same molecule?
Answer: The Km was 12.5 mM.

Question: What about the “kcat (F6P)” value [7] of the same molecule?
Answer: Its value is “kcat (F6P) = 39 s^−1”.

Question: And the Km ([7]; read-out: Km(F6P))?
Answer: The Km was 26 mM.

Question: What about the “kcat (F6P)” value [8] of the same molecule?
Answer: The value was “kcat(F6P) = 738 s^−1”.

Question: And the Km ([8]; read-out: Km(F6P))?
Answer: Its Km is 5.1 mM.

Question: What about the “kcat (F6P)” value [3] of the same molecule?
Answer: Its value is “kcat(F6P) = 8 s^−1”.

Question: What about the Km ([3]; read-out: Km(F6P)) of the same molecule?
Answer: Its Km is 10 mM.

Question: And the “kcat (F6P)” value ([1]; Yevenes and Frey (2008))?
Answer: The value was “kcat(F6P) = 2.7 s^−1”.

Question: What about the Km ([1]; read-out: Km(F6P), Yevenes and Frey (2008)) of the same molecule?
Answer: The Km was 24 mM.

Question: And the “kcat (F6P)” value [9]?
Answer: Its value is “kcat (F6P) = 33 s^−1”.

Question: What about the Km ([9]; read-out: Km(F6P)) of the same molecule?
Answer: Its Km is 23 mM.

Question: What about the “kcat (F6P)” value [10] of the same molecule?
Answer: Its value is “kcat (F6P) = 33 s^−1”.

Question: What about the Km ([10]; read-out: Km(F6P)) of the same molecule?
Answer: The Km was 11.5 mM.

Question: What about the “kcat (F6P)” value [4] of the same molecule?
Answer: The value was “kcat (F6P) = 0.2 s−1”.

Question: And the Km ([4]; read-out: Km(F6P))?
Answer: Its Km is 22 mM.

Question: What about the kcat [11] of the same molecule?
Answer: The kcat was 16.6 s⁻¹.

Question: What about the “kcat (F6P)” value ([2]; Suzuki et al. (2010)) of the same molecule?
Answer: Its value is “kcat (F6P) = 22.4 s^−1”.

Question: What about the Km ([2]; read-out: Km(F6P), Suzuki et al. (2010)) of the same molecule?
Answer: The Km was 9.7 mM.

Question: What about the Km [5, 13] of the same molecule?
Answer: Its Km is 2.86 mM.

Question: And the Vmax [5, 13]?
Answer: The Vmax was 0.71 µM/s.

Question: What about the kcat [5, 13] of the same molecule?
Answer: The kcat was 1.4 s⁻¹.

Question: And the kcat ([5]; saturating Pi)?
Answer: Its kcat is 1.4 s⁻¹.

Question: For O=C[C@H](O)[C@H](O)COP(=O)(O)O [E4P, erythrose 4-phosphate], which Ki ([1]; for F6P as a substrate, read-out: Kis^E4P) is on record?
Answer: The Ki was 8 mM.

Question: And the Ki ([1]; for F6P as a substrate, read-out: Kll^E4P)?
Answer: Its Ki is 4.4 mM.

B1: Bifidobacterium longum phosphoketolase (B. longum PKL), SEQ ID NO: 4 (encoded by SEQ ID NO:3) (Bifidobacterium longum subsp. infantis ATCC 15697 = JCM 1222 = … (protein)
chain: MTSPVIGTPWKKLSAPVSEEALEGVDKYWRVANYLSIGQIYLRSNPLMKEPFTREDVKHRLVGHWGTTPGLNFLIGHINRFIADHGQNTVIIMGPGHGGPAGTSQSYLDGTYTETFPKITKDEAGLQKFFRQFSYPGGIPSHFAPETPGSIHEGGELGYALSHAYGAIMDNPSLFVPAIVGDGEAETGPLATGWQSNKLVNPRTDGIVLPILHLNGYKIANPTILSRISDEELHEFFHGMGYEPYEFVAGFDDEDHMSIHRRFAELWETIWDEICDIKATAQTDNVHRPFYPMLIFRTPKGWTCPKYIDGKKTEGSWRSHQVPLASARDTEAHFEVLKNWLESYKPEELFDANGAVKDDVLAFMPKGELRIGANPNANGGVIRDDLKLPNLEDYEVKEVAEFGHGWGQLEATRSLGAYTRDIIKNNPRDFRIFGPDETASNRLQASYEVTNKQWDAGYISDEVDEHMRVSGQVVEQLSEHQMEGFLEAYLLTGRHGIWSSYESFVHVIDSMLNQHAKWLEATVREIPWRKPIASMNLLVSSHVWRQDHNGFSHQDPGVTSVLLNKCFHNDHVIGIYFATDANMLLAIAEKCYKSTNKINAIIAGKQPAATWLTLDEARAELEKGAAAWDWASTAKTNDEAEIVLAAAGDVPTQEIMAASDKLKELGIKFKVVNVVDLLSLQSAKENDEALSNEEFADIFTADKPVLFAYHSYAHDVRGLIYDRPNHDNFNVHGYEEEGSTTTPYDMVRVNRIDRYELTAEALRMIDADKYADKIDELEKFRDEAFQFAVDKGYDHPDYTDWVYSGVNTGKKGAVTATAATAGDNE
Question: Which Km [12] does the source give for B1 here?
Answer: Its Km is 21.16 mM.

Question: What about the Vmax [12] of the same molecule?
Answer: Its Vmax is 265 µM/min.

Question: And the kcat [12]?
Answer: Its kcat is 16.6 s⁻¹.
